Experimental data taken from patent publication US11213499B1, “Use of 3,3′-diselenodipropionic acid (DSePA) as an anticancer agent” (Secretary, Department of Atomic Energy, priority 2020, dated 2022).

Test system: human K562 xenograft
Experiment: Anti-tumor effect in human K562 xenograft model
Type: in vivo
Details: for mortality: study period of 30 days
Description: These xenografts representative of NSCLC and CML respectively are considered to be highly aggressive and resistant to chemotherapy treatment. Therefore, any new chemotherapy agent against these cancers is very much sought. For the experiment, a total of 12 mice bearing A549 or K562 tumors of volume in the range of ˜50 mm^3 were divided into two groups (I & II), each group comprising of six mice. […] The group II was administered DSePA daily dissolved in sterile saline through oral route at a dosage of 1 mg/Kg body weight. The tumor volume and body weight of mice from each group were monitored daily for a total period of 30 days from the day of start. The animals were also checked for mortality if any throughout the study period. The experiment in A549 tumor was repeated three times (n=18 for each group) and the experiment in K562 tumor was repeated two times (n=12 for each group). […] This is the first study to show the anticancer activity of DSePA per se using xenograft model of human lung cancer (A549) and human leukemia (K562) cells in mice. Discovery of the application of the anticancer activity of DSePA is a novel invention in context of its probable usage in treatment for lung and leukemia cancer. More specifically the invention proposes a treatment regime and route of administering DSePA to inhibit the growth of human NSCLC (A549) and CML (K562).
For the optimization of the oral dosage of DSePA, a total of 24 mice bearing A549 or K562 xenograft of volume in the range of ˜50 mm^3 were divided into four groups (I-IV), each group comprising of six mice. […] The groups II, III and IV were administered DSePA dissolved in sterile saline through oral route at the dosage of 1, 2.5 and 5 mg/kg body weight respectively. The administration of DSePA was performed daily for 4 weeks. The tumor volume and body weight of mice from each group were monitored daily for a total period of 30 days from the day of start. The animals were also checked for mortality if any throughout the study period.
Animal maintenance—All animal studies were approved by the Institutional Animal Ethics Committee. Animals were housed under standard conditions (20±2° C., 65-70% humidity, 12 h/12 h day/night cycle, balanced laboratory diet and tap water ad libitum.
Xenograft tumor model-A549 and K562 tumor models were developed by Anticancer Drug Screening Facility of Advanced Centre for Treatment, Research and Education in Cancer (ACTREC), India. Briefly, Male/female NOD-SCID aged 6-7 weeks were housed in the laboratory animal facility of ACTREC. Donor mice carrying K562 or A549 xenografts were developed by injecting 2×10^6 cells in 100 μl of DMEM/RPMI, subcutaneously in their right flank. When tumors attained the size of approximately 2000 mm^3, the animals were sacrificed. Tumors were obtained and further cut into 2-3 mm fragments and implanted subcutaneously in the right flank of 6-7 weeks old recipient SCID mice. Tumors were allowed to grow to a size of approximately 50 mm^3 following which animals were divided into groups of six animals each for evaluation. A fresh DSePA solution was prepared by dissolution in sterile saline before each administration by intraperitoneal/oral route. The tumor efficacy of DSePA was determined by monitoring parameters like tumor volume and T/C. Tumors were assumed spherical and volume was calculated using following equations (1 & 2): […]
Where d1 (mm) and d2 (mm) are diameters measured in two perpendicular planes. T/C is defined as the ratio of the mean tumor volume of DSePA treated groups with the mean tumor volume of control group on the day of observation.

[1] = 1 mg/kg body weight daily oral, day 1
[2] = 1 mg/kg body weight daily oral, day 5
[3] = 1 mg/kg body weight daily oral, day 9
[4] = 1 mg/kg body weight daily oral, day 12
[5] = 1 mg/kg body weight daily oral, day 15
[6] = 1 mg/kg body weight daily oral, day 18
[7] = 1 mg/kg body weight daily oral, day 21
[8] = 1 mg/kg body weight daily oral, day 24
[9] = 1 mg/kg body weight daily oral, day 27
[10] = 1 mg/kg body weight daily oral, day 32
[11] = 2.5 mg/kg body weight daily oral, day 1
[12] = 2.5 mg/kg body weight daily oral, day 5
[13] = 2.5 mg/kg body weight daily oral, day 9
[14] = 2.5 mg/kg body weight daily oral, day 12
[15] = 2.5 mg/kg body weight daily oral, day 15
[16] = 2.5 mg/kg body weight daily oral, day 18
[17] = 2.5 mg/kg body weight daily oral, day 21
[18] = 2.5 mg/kg body weight daily oral, day 24
[19] = 2.5 mg/kg body weight daily oral, day 27
[20] = 2.5 mg/kg body weight daily oral, day 32
[21] = 5 mg/kg body weight daily oral, day 1
[22] = 5 mg/kg body weight daily oral, day 5
[23] = 5 mg/kg body weight daily oral, day 9
[24] = 5 mg/kg body weight daily oral, day 12
[25] = 5 mg/kg body weight daily oral, day 15
[26] = 5 mg/kg body weight daily oral, day 18
[27] = 5 mg/kg body weight daily oral, day 21
[28] = 5 mg/kg body weight daily oral, day 24
[29] = 5 mg/kg body weight daily oral, day 27
[30] = 5 mg/kg body weight daily oral, day 32

O=C(O)CC[Se][Se]CCC(=O)O [DSePA, 3,3′-diselenodipropionic acid]
tumor growth inhibition vs control (1 mg/Kg body weight daily oral, two independent experiments): significantly (P<0.05) inhibited the growth | overall reduction (relative tumor volume vs tumor control) (1 mg/Kg orally daily, end of study period (30 days), n=12, P=0.011): ~3.7 folds | mortality (1 mg/Kg orally daily, two independent studies): did not show any mortality | % S (Survival) [1]: 100% | RTV (Relative Tumor Volume) [1]: 1 | T/C (T (test)/C (control)) [1]: 1 | % S (Survival) [2]: 100% | RTV (Relative Tumor Volume) [2]: 1.13 | T/C (T (test)/C (control)) [2]: 0.80 | % S (Survival) [3]: 100% | RTV (Relative Tumor Volume) [3]: 1.13 | T/C (T (test)/C (control)) [3]: 0.79 | % S (Survival) [4]: 100% | RTV (Relative Tumor Volume) [4]: 1.22 | T/C (T (test)/C (control)) [4]: 0.48 | % S (Survival) [5]: 100% | RTV (Relative Tumor Volume) [5]: 1.42 | T/C (T (test)/C (control)) [5]: 0.37 | % S (Survival) [6]: 100% | RTV (Relative Tumor Volume) [6]: 2.28 | T/C (T (test)/C (control)) [6]: 0.38 | % S (Survival) [7]: 100% | RTV (Relative Tumor Volume) [7]: 1.90 | T/C (T (test)/C (control)) [7]: 0.33 | % S (Survival) [8]: 100% | RTV (Relative Tumor Volume) [8]: 2.22 | T/C (T (test)/C (control)) [8]: 0.24 | % S (Survival) [9]: 100% | RTV (Relative Tumor Volume) [9]: 3.24 | T/C (T (test)/C (control)) [9]: 0.32 | % S (Survival) [10]: 100% | RTV (Relative Tumor Volume) [10]: 4.38 | T/C (T (test)/C (control)) [10]: 0.36 | % S (Survival) [11]: 100% | RTV (Relative Tumor Volume) [11]: 1 | T/C (T (test)/C (control)) [11]: 1 | % S (Survival) [12]: 100% | RTV (Relative Tumor Volume) [12]: 1.09 | T/C (T (test)/C (control)) [12]: 0.76 | % S (Survival) [13]: 100% | RTV (Relative Tumor Volume) [13]: 1.01 | T/C (T (test)/C (control)) [13]: 0.70 | % S (Survival) [14]: 100% | RTV (Relative Tumor Volume) [14]: 1.42 | T/C (T (test)/C (control)) [14]: 0.56 | % S (Survival) [15]: 100% | RTV (Relative Tumor Volume) [15]: 1.66 | T/C (T (test)/C (control)) [15]: 0.43 | % S (Survival) [16]: 100% | RTV (Relative Tumor Volume) [16]: 1.79 | T/C (T (test)/C (control)) [16]: 0.30 | % S (Survival) [17]: 100% | RTV (Relative Tumor Volume) [17]: 1.54 | T/C (T (test)/C (control)) [17]: 0.26 | % S (Survival) [18]: 100% | RTV (Relative Tumor Volume) [18]: 1.23 | T/C (T (test)/C (control)) [18]: 0.13 | % S (Survival) [19]: 100% | RTV (Relative Tumor Volume) [19]: 1.74 | T/C (T (test)/C (control)) [19]: 0.17 | % S (Survival) [20]: 100% | RTV (Relative Tumor Volume) [20]: 2.21 | T/C (T (test)/C (control)) [20]: 0.18 | % S (Survival) [21]: 100% | RTV (Relative Tumor Volume) [21]: 1 | T/C (T (test)/C (control)) [21]: 1 | % S (Survival) [22]: 100% | RTV (Relative Tumor Volume) [22]: 1.04 | T/C (T (test)/C (control)) [22]: 0.73 | % S (Survival) [23]: 100% | RTV (Relative Tumor Volume) [23]: 1.05 | T/C (T (test)/C (control)) [23]: 0.73 | % S (Survival) [24]: 100% | RTV (Relative Tumor Volume) [24]: 1.32 | T/C (T (test)/C (control)) [24]: 0.52 | % S (Survival) [25]: 100% | RTV (Relative Tumor Volume) [25]: 1.11 | T/C (T (test)/C (control)) [25]: 0.29 | % S (Survival) [26]: 100% | RTV (Relative Tumor Volume) [26]: 1.29 | T/C (T (test)/C (control)) [26]: 0.22 | % S (Survival) [27]: 100% | RTV (Relative Tumor Volume) [27]: 1.22 | T/C (T (test)/C (control)) [27]: 0.21 | % S (Survival) [28]: 100% | RTV (Relative Tumor Volume) [28]: 1.25 | T/C (T (test)/C (control)) [28]: 0.13 | % S (Survival) [29]: 100% | RTV (Relative Tumor Volume) [29]: 1.73 | T/C (T (test)/C (control)) [29]: 0.17 | % S (Survival) [30]: 100% | RTV (Relative Tumor Volume) [30]: 2.45 | T/C (T (test)/C (control)) [30]: 0.20 | tumor growth inhibition vs control (dosage optimization, 1 mg/kg body weight daily oral for 4 weeks): significantly (P<0.05) inhibited the growth of K562 tumor from the day 15 onwards | tumor growth inhibition vs control (dosage optimization, 2.5 mg/kg body weight daily oral for 4 weeks): significantly (P<0.05) inhibited the growth of K562 tumor from the day 15 onwards | tumor growth inhibition vs control (dosage optimization, 5 mg/kg body weight daily oral for 4 weeks): significantly (P<0.05) inhibited the growth of K562 tumor from the day 15 onwards | mortality (dosage optimization, 1, 2.5 and 5 mg/kg daily oral): did not show any mortality | T/C achieved (leukemia model, 1 mg/kg body weight daily oral): ≤ 0.42 | minimum dosage to achieve optimum efficacy (oral daily): 1 mg/kg body weight
